Patent US7601850B2, “Phenyl-thiophene type vitamin D receptor modulators” (Eli Lilly and Company, priority 2002, dated 2009)
Like-named read-outs stand apart in the source and are kept apart here.

Assays:
KERtr cells = assay: Keratinocyte proliferation assay (BrdU incorporation); assay type: cell-based; conditions: KERtr human skin keratinocytes, 72 hr treatment, read-out: Kera. Prolif. IC50
Procedure: 6. The keratinocyte proliferation assay is described in the “Assay” section of the Description, infra.
5. The Keratinocyte Proliferation Assay
This Assay is indicative for the treatment of psoriasis.
(5) The Keratinocyte Proliferation Assay:
KERtr cells (Human skin keratinocyte transformed with a retrovirus vector, obtained from ATCC) were plated in 96-well flat-bottomed plates (3000 cells/well) in 100 µl keratinocyte serum free medium supplemented with bovine pituitary extract in the absence of EGF (Life Technologies, Rockville, Md.) and incubated at 37° C. for two days. The cells were treated with various concentrations of VDR ligands (ten-fold serial dilution from 10,000 nM to 0.1 nM in triplicate), dissolved in 100 µl keratinocyte serum free medium supplemented with bovine pituitary extract in the absence of EGF and incubated at 37° C. for 72 hr. […] Potency values (IC50) values were determined as the concentration (nM) of compound that elicited a half-maximal response.

[1] = system: IL-10 production in peripheral blood mononuclear cells (PBMCs); assay: Human IL-10 induction assay in PBMCs; assay type: cell-based; conditions: TPA/PHA stimulated human PBMCs, IL-10 in supernatant by immunoassay
Description: 7. The IL-10 induction assay is described in the “Assay” section of the Description, infra.
The evaluation of the novel compounds of the invention for psoriasis is done using the Keratinocyte Proliferation Assay in combination with other assays that measure inhibition of IL-2 production and stimulation of IL-10 production in peripheral blood mononuclear cells (PBMCs).
6. The IL-1 Induction Assay
This is an in vitro efficacy assay for psoriasis, abscess and adhesion. Psoriasis involves both keratinocytes and immune cells. IL-10 is a unique cytokine because it is anti-inflammatory and immunosuppressive. This assay tells us whether a VDRM is able to function as an agonist in PBMCs (primary blood mononuclear cells) or not. A lower EC50 value is desirable in this assay since a compound with a lower EC50 value will be a better agonist in PBMCs. An acceptable test result is an EC50 value of less than 200 nM.
(6) Materials and Method for Human IL-10 Induction Assay:
Isolation of peripheral blood mononuclear cells (PBMCs):
• A. Collect 50 ml of human blood and dilute with media, RPMI-1640. • B. Prepare sterile tubes with ficol. • C. Add diluted blood to tubes. • D. Centrifuge. • E. Discard the top layer and collect the cells from middle layer. • F. Divide all cells into four tubes and add media. • G. Centrifuge. • H. Aspirate off media and resuspend. • I. Collect all cells • J. Centrifuge. at 1200 rpm for 10 minutes. • K. Resuspend in RPMI-1640 with 2% FBS and count cells • Stimulation of PBMC: • L. Prepare TPA in DMSO. • M. Dissolve PHA in water. • N. Plate TPA/PHA treated PBMCs in well plates. • O. Incubate. • Treatment: • P. Prepare all compound dilutions in plain RPMI-1640 media. • Q. Add diluted compound. • R. Incubate. • Sample Collection and assay: • S. Remove all the cells by centrifugation and assay the supernatant for IL-10 by immunoassay. • 1) T. Perform IL-10 assay using anti-human IL-10 antibody coated beads, as described by the manufacturer (Linco Research Inc., St. Charles, Mo.).

RXR-VDR heterodimer = biological target: T1, RXR-VDR heterodimer (Homo sapiens, UniProt P11473); assay: RXR-VDR heterodimerization assay (SaOS-2 cells); assay type: cell-based
T1 construct: Add the Gal-4-RXR-DEF and VP16-VDR-LBD; expressed in transfected cells; host or cells: SaOS-2 cells
T1 sequence (P11473 127-423 limits assumed): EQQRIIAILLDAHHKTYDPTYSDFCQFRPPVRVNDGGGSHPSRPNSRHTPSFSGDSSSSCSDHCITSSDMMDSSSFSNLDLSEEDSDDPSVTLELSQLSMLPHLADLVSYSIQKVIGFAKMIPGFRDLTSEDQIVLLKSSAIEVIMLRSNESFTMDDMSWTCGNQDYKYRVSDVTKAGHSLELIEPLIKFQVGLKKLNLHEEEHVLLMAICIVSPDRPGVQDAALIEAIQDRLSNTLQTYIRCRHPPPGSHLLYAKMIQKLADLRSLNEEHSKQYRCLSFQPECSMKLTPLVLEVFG
T1 sequence (P19793 201-462 partner limits assumed): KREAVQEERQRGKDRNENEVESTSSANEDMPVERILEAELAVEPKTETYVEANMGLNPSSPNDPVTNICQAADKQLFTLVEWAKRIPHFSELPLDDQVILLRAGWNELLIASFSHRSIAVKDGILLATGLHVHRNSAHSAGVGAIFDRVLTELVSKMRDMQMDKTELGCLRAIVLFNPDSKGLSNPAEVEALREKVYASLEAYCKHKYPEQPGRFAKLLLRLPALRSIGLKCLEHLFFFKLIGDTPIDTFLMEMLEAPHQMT
Description: 2. The RXR-VDR heterodimerization (SaOS-2 cells) test is described in the “Assay” section of the Description, infra.
1. The RXR-VDR heterodimerAssay:
This assay provides the VDR activity of a test compound.
(1) Materials and Method for RXR-VDR Heterodimerization Assay:
Luciferase Assay Reagent: • Use Steady-Glo Luciferase Reagent from Promega (Cat # E2550) Consists of: • a. E2533 Assay Substrate, lyopholized product and • b. […] DAY 2: Transfection Step 1: DNA and Media • Add plain DMEM media to tubes for mixing the DNA • Add the Reporter gene pFR-LUC • Add the Gal-4-RXR-DEF and VP16-VDR-LBD Step 2: FuGENE and Media • Prepare plain DMEM media in a ubes for mixing FuGENE • Add FuGENE 6 Transfection Reagent • Incubate Step 3: FuGENE, DNA and Media Complex • Add FuGENE Media complex from step 2 to DNA Media complex from step 1 • Incubate Step 4: FuGENE, DNA and Media Complex to-well plate • Add FuGENE-DNA-Media complex from step 3 to each plate • Incubate. […] Day 4: Luciferase Assay • Read the plates after drug treatment • Remove part of media from all the wells and leave remainder • Add Steady-Glo Luciferase Reagent mixture/wells • Incubate • Count each well using a Luminescence counter, Top Count NXT by Packard
Set a delay between plates to reduce the background.

rat osteocalcin promoter = assay: OCN (osteocalcin) promoter assay in RG-15 (ROS 17/2.8) cells; assay type: cell-based
Outline: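 Rat osteoblast-like RG-15 (ROS 17/2.8) cells stably carry the rat osteocalcin promoter fused to luciferase. They were treated with compounds for 48 h in medium with 2% FBS and 0.01% DMSO. EC50 was derived from luciferase activity in cell lysates.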

[2] = Mouse hypercalcemia assay (six day, serum ionized calcium); assay type: in vivo
Procedure: 5. The Mouse Hypercalcemia test is described in the “Assay” section of the Description, infra.
4. The Mouse Hypercalcemia Assay
The Mouse Hypercalcemia Assay is a six day hypercalcemia test for toxicity and selectivity. Acceptable test results are levels greater than 300 μg/kg/day. Preferred assay results are levels greater than 1000 μg/kg/day.
(4) Materials and Method for The Mouse Hypercalcemia Assay:
Weanling, virus-antibody-free, five to six weeks old female DBF mice (Harlan, Indianapolis, Ind.) are used for all the studies. Animals are allowed to acclimate to local vivarium conditions for 2 days. […] The animals then are divided into groups with 4-5 mice per group. Different doses of test compounds prepared in 10% Ethanol and 90% sesame oil are administered to mice orally via gavage for 6 days. 1α-25(OH)2D3 0.5 μg/kg/d was also given to one group of mice as the positive control. Serum ionized calcium is evaluated at 6 hours after the last dosing under isoflurane anesthesia by Ciba-Corning Ca++/PH Analyzer, (Model 634, Chiron Diagnostics Corp., East Walpole, Mass.). Raw data of group differences is assessed by analysis of variance (ANOVA) using Fisher's protected least significant difference (PLSD) where the significance level was P<0.05.

[3] = Homo sapiens, Keratinocyte, 72 h

Structure (SMILES)	IC50 (KERtr cells; [3])	IC50 ([1]; Homo sapiens, PBMC)	EC50 (RXR-VDR heterodimer)	EC50 (rat osteocalcin promoter)	Mouse Hypercal [2]	EC50 (rat osteocalcin promoter; Rattus norvegicus)	other results
CCC(CC)(c1ccc(OS(C)(=O)=O)c(C)c1)c1cc(C)c(CCC(O)C(C)(C)C)s1 (single isomer, unassigned) [Ex. 19A]	0.018 µM	0.06 µM	–	–	–	–	–
CCC(CC)(c1ccc(CCC(=O)O)c(C)c1)c1cc(C)c(CCC(O)C(C)(C)C)s1 (single isomer, unassigned) [Ex. 30B]	–	0.12 µM	–	–	–	–	–
CCc1cc(C(CC)(CC)c2ccc(C(=O)O)s2)ccc1OCC(O)C(C)(C)C (single isomer, unassigned) [Ex. 101, 3′-[4-(2-hydroxy-3,3-dimethylbutoxy)-3-ethylphenyl]-3′-[5-carboxy-thiophen-2-yl]pentane]	–	–	0.379 µM	0.0294 µM	12000 µg/kg/day	–	–
CCc1cc(C(CC)(CC)c2ccc(C(=O)O)s2)ccc1OCC(C)(O)C(C)(C)C (single isomer, unassigned) [Ex. 108, 3′-[4-(2-hydroxy-2,3,3-trimethylbutoxy)-3-ethylphenyl]-3′-[5-carboxy-thiophen-2-yl]pentane]	0.066 µM	0.597 µM	–	–	300 µg/kg/day	0.00525 µM	–
CCc1cc(C(CC)(CC)c2ccc(C(=O)N[C@@H](C)C(=O)O)s2)ccc1OCC(C)(O)C(C)(C)C (single isomer, unassigned) [Ex. 110, d-3′-[4-(2-hydroxy-2,3,3-trimethylbutoxy)-3-ethylphenyl]-3′-[5-(carboxy-1-ethylamino)carbonyl-thiophen-2-yl]pentane]	0.0095 µM	0.288 µM	–	–	<300 µg/kg/day	0.000225 µM	–
CCCc1cc(C(CC)(CC)c2ccc(C(=O)O)s2)ccc1OCC(C)(O)C(C)(C)C (single isomer, unassigned) [Ex. 113, 3′-[4-(2-hydroxy-2,3,3-trimethylbutoxy)-3-n-propylphenyl]-3′-[5-carboxy-thiophen-2-yl]pentane]	–	–	0.542 µM	0.118 µM	–	–	–
CCC(CC)(c1ccc(OCC(C)(O)C(C)(C)C)c(OC)c1)c1ccc(C(=O)N[C@H](C)C(=O)O)s1 (single isomer, unassigned) [Ex. 117, d-3′-[4-(2-hydroxy-2,3,3-trimethylbutoxy)-3-methoxyphenyl]-3′-[5-(carboxy-1-ethylamino)carbonyl-thiophen-2-yl]pentane]	–	–	2.21 µM	0.101 µM	–	–	–
CCC(CC)(c1ccc(OCC(O)C(C)(C)C)c(C)c1)c1ccc(S(=O)(=O)NCC(=O)OC)s1 (single isomer, unassigned) [Ex. 152]	–	–	0.474 µM	–	–	0.11 µM	–
C=C1/C(=C\C=C2/CCC[C@]3(C)[C@@H]([C@H](C)CCCC(C)(C)O)CC[C@@H]23)C[C@@H](O)C[C@@H]1O [AA, 1α,25-dihydroxyvitamin D3, reference compound]	–	–	–	0.005 µM	0.06 µg/kg/day	–	IC50 [1]: 0.0012 µM
CCC(CC)(c1ccc(OCC(=O)C(C)(C)C)c(C)c1)c1cc(C)c(CS(C)(=O)=O)s1 [Ex. 9]	0.129 µM	0.098 µM	–	–	–	0.0466 µM	–
CCC(CC)(c1ccc(OCC(O)C(C)(C)C)c(C)c1)c1cc(C)c(C(=O)N[C@@H](C)C(=O)O)s1 (stereo partly drawn) [Ex. 65, L-2-[(5-{1-Ethyl-1-[4-(2-hydroxy-3,3-dimethyl-butoxy)-3-methyl-phenyl]-propyl}-3-methyl-thiophene-2-carbonyl)-amino]-propionic acid]	–	0.041 µM	–	0.0034 µM	300 µg/kg/day	–	IC50 (KERtr cells): 0.056 µM
CCC(CC)(c1ccc(OCC(O)C(C)(C)C)c(C)c1)c1cc(C)c(S(=O)(=O)NCC(=O)O)s1 (stereo not drawn) [Ex. 138]	0.102 µM	0.11 µM	–	–	–	–	–
CCC(CC)(c1ccc(OCC(O)C(C)(C)C)c(C)c1)c1cc(C)c(-c2n[nH]c(=O)o2)s1 (stereo not drawn) [Ex. 170]	–	0.1 µM	–	–	–	–	–
